Assay results published in patent US10670605B2, “Cysteine reactive probes and uses thereof” (The Scripps Research Institute, priority 2015, dated 2020).

Experiments:
Test in all cases: Competitive isoTOP-ABPP, cell lysates;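 as to isoTOP-ABPP reactivity profile ratio, Q99873 C109: Heavy/light ratio DMSO over fragment-treated so higher means more cysteine engagement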
Format in all cases: binding
PRMT1 C109 (Q99873) = PRMT1 C109 (Q99873) (Homo sapiens, UniProt Q99873); conditions: for isoTOP-ABPP reactivity ratio, Q99873_C109 / isoTOP-ABPP reactivity profile ratio, Q99873_C109: 500 μm;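 as to isoTOP-ABPP reactivity profile ratio, Q99873 C109: Heavy/light ratio DMSO over fragment-treated so higher means more cysteine engagement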
PRMT1 C109 (Q99873), sequence (Q99873 whole entry, the tested form may be a part): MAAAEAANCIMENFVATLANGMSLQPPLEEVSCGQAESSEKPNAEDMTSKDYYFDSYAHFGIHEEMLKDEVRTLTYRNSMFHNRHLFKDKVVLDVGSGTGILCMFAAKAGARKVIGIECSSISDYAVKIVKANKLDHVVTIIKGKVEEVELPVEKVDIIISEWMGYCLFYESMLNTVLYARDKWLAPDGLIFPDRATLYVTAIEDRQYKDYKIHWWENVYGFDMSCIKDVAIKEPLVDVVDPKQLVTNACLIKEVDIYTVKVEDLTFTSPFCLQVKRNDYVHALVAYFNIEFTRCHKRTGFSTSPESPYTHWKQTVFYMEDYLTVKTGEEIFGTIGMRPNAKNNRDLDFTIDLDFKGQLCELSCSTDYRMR

XPO1 C528 (O14980) = XPO1 C528 (O14980) (Homo sapiens, UniProt O14980); conditions: 500 μm
XPO1 C528 (O14980), sequence (O14980 whole entry): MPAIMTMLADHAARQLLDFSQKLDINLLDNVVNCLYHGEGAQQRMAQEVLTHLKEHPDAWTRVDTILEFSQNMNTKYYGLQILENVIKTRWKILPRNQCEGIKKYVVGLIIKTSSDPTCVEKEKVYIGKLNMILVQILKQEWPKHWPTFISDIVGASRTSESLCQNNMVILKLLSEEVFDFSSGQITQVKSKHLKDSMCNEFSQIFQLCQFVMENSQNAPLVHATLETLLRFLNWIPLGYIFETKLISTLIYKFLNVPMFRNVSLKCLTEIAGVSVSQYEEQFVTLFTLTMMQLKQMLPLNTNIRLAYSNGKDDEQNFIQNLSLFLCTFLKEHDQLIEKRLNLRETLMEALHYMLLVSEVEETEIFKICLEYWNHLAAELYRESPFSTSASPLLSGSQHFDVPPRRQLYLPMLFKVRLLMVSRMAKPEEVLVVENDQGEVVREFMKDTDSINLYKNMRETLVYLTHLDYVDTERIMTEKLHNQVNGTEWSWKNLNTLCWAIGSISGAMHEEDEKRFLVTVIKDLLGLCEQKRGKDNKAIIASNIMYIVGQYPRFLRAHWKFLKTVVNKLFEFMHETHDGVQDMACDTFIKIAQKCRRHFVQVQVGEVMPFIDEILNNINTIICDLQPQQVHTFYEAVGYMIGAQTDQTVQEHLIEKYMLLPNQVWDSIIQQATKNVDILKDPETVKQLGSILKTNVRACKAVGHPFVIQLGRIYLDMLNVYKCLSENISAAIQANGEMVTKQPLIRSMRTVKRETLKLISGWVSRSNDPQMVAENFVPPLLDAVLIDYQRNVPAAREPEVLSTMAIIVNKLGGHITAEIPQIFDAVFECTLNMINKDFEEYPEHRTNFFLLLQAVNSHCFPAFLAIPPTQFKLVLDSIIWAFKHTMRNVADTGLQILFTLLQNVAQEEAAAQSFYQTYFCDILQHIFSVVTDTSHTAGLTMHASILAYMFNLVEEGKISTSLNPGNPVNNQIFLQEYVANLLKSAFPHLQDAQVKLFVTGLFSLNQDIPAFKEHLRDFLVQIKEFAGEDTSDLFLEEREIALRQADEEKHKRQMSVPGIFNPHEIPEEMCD

PCK2 C306 (Q16822) = molecular target: T1, PCK2 C306 (Q16822) (Homo sapiens, UniProt Q16822); conditions: 500 μm
T1 sequence (Q16822 33-640): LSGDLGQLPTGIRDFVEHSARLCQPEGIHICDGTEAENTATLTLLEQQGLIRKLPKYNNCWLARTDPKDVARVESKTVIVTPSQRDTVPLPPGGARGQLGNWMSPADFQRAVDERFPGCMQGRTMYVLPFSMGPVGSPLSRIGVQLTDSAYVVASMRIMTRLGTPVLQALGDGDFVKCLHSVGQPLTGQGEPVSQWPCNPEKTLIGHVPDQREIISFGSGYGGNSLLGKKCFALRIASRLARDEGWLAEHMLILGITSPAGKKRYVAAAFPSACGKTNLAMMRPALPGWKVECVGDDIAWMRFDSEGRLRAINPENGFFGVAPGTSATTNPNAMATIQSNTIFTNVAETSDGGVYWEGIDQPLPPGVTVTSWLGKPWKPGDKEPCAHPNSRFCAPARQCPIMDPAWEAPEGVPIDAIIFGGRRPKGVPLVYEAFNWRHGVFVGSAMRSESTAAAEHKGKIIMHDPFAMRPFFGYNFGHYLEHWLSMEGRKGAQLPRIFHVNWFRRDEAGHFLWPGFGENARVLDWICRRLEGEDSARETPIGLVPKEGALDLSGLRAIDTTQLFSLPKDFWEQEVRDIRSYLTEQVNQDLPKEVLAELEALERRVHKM

ADA C75 (P00813) = molecular target: T2, ADA C75 (P00813) (Homo sapiens, UniProt P00813); conditions: 500 μm, in-vitro_ramos
T2 sequence (P00813 1-363): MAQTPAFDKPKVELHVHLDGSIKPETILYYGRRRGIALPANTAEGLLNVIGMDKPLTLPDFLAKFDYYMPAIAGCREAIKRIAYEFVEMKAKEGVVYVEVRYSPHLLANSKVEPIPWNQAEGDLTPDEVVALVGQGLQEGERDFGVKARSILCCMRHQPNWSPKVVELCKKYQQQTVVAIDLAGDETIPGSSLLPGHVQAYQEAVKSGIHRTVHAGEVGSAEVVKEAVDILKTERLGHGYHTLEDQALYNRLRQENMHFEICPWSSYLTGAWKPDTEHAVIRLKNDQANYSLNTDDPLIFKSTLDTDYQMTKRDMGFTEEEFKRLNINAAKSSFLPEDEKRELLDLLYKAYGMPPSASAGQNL

ACAT1 C119 (P24752) = molecular target: T3, ACAT1 C119 (P24752) (Homo sapiens, UniProt P24752); conditions: 500 μm
T3 sequence (P24752 34-427): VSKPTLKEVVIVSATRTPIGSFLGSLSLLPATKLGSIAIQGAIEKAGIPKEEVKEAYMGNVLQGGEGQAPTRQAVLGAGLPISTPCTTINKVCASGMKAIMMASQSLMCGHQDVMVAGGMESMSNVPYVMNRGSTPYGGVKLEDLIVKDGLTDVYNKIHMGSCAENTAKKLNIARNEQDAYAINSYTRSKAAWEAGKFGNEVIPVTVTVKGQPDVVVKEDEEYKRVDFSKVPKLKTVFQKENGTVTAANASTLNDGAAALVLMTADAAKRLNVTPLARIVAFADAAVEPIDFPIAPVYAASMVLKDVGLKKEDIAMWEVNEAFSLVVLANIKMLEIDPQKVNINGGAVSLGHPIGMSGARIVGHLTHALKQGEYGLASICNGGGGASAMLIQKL

Compound | isoTOP-ABPP reactivity ratio, Q99873_C109 (PRMT1 C109 (Q99873); in-vitro_ramos) | isoTOP-ABPP reactivity ratio, Q99873_C109 (PRMT1 C109 (Q99873); in-vitro_ramos_231) | isoTOP-ABPP reactivity ratio, O14980_C528 (XPO1 C528 (O14980); in-vitro_ramos) | isoTOP-ABPP reactivity ratio, Q16822_C306 (PCK2 C306 (Q16822); in-vitro_ramos) | isoTOP-ABPP reactivity ratio, Q16822_C306 (PCK2 C306 (Q16822); in-vitro_ramos_231) | isoTOP-ABPP reactivity ratio, P00813_C75 (ADA C75 (P00813)) | isoTOP-ABPP reactivity ratio, P24752_C119 (ACAT1 C119 (P24752); in-vitro_ramos) | isoTOP-ABPP reactivity ratio, P24752_C119 (ACAT1 C119 (P24752); in-vitro_ramos_231) | isoTOP-ABPP reactivity ratio, O14980_C528 (XPO1 C528 (O14980); in-vitro_ramos_231) | isoTOP-ABPP reactivity profile ratio, Q99873_C109 (PRMT1 C109 (Q99873); in-vitro_ramos) | isoTOP-ABPP reactivity profile ratio, Q99873_C109 (PRMT1 C109 (Q99873); in-vitro_ramos_231) | isoTOP-ABPP reactivity profile ratio, O14980_C528 (XPO1 C528 (O14980); in-vitro_ramos_231) | isoTOP-ABPP reactivity profile ratio, Q16822_C306 (PCK2 C306 (Q16822); in-vitro_ramos_231) | isoTOP-ABPP reactivity profile ratio, P00813_C75 (ADA C75 (P00813)) | isoTOP-ABPP reactivity profile ratio, P24752_C119 (ACAT1 C119 (P24752); in-vitro_ramos) | isoTOP-ABPP reactivity profile ratio, P24752_C119 (ACAT1 C119 (P24752); in-vitro_ramos_231) | blockade of IA-alkyne labeling of C109 of PRMT1 (PRMT1 C109 (Q99873); competitive isoTOP-ABPP) | isoTOP-ABPP reactivity profile ratio, O14980_C528 (XPO1 C528 (O14980); in-vitro_ramos) | isoTOP-ABPP reactivity profile ratio, Q16822_C306 (PCK2 C306 (Q16822); in-vitro_ramos)
O=C(CCl)Nc1ccccc1C1CCCCCC1 [compound 35] | 1.0 | 0.8 | 0.8 | 1.0 | 0.9 | 1.1 | 1.0 | 0.9 |  |  |  |  |  |  |  |  |  |  | 
C=CC(=O)N1CCC(c2noc3ccc(F)cc23)CC1 [compound 37] | 1.0 |  | 0.9 | 1.0 |  | 0.9 | 0.8 |  |  |  |  |  |  |  |  |  |  |  | 
C=CC(=O)Nc1cc(F)c(N2CCN(C(=O)OC(C)(C)C)CC2)c(F)c1 [compound 38] | 1.4 | 0.9 |  |  | 1.0 | 2.3 | 1.7 | 1.0 | 1.0 |  |  |  |  |  |  |  |  |  | 
Cc1ccc(C=C(C#N)C(=O)NCCN2CCOCC2)cc1 [compound 41] | 0.9 | 0.9 |  | 1.0 | 1.2 | 1.1 | 0.8 | 1.0 | 0.6 |  |  |  |  |  |  |  |  |  | 

Further lines, results first:

isoTOP-ABPP reactivity ratio, Q99873_C109 (PRMT1 C109 (Q99873); in-vitro_ramos) | isoTOP-ABPP reactivity ratio, Q99873_C109 (PRMT1 C109 (Q99873); in-vitro_ramos_231) | isoTOP-ABPP reactivity ratio, O14980_C528 (XPO1 C528 (O14980); in-vitro_ramos) | isoTOP-ABPP reactivity ratio, Q16822_C306 (PCK2 C306 (Q16822); in-vitro_ramos) | isoTOP-ABPP reactivity ratio, Q16822_C306 (PCK2 C306 (Q16822); in-vitro_ramos_231) | isoTOP-ABPP reactivity ratio, P00813_C75 (ADA C75 (P00813)) | isoTOP-ABPP reactivity ratio, P24752_C119 (ACAT1 C119 (P24752); in-vitro_ramos) | isoTOP-ABPP reactivity ratio, P24752_C119 (ACAT1 C119 (P24752); in-vitro_ramos_231) | isoTOP-ABPP reactivity ratio, O14980_C528 (XPO1 C528 (O14980); in-vitro_ramos_231) | isoTOP-ABPP reactivity profile ratio, Q99873_C109 (PRMT1 C109 (Q99873); in-vitro_ramos) | isoTOP-ABPP reactivity profile ratio, Q99873_C109 (PRMT1 C109 (Q99873); in-vitro_ramos_231) | isoTOP-ABPP reactivity profile ratio, O14980_C528 (XPO1 C528 (O14980); in-vitro_ramos_231) | isoTOP-ABPP reactivity profile ratio, Q16822_C306 (PCK2 C306 (Q16822); in-vitro_ramos_231) | isoTOP-ABPP reactivity profile ratio, P00813_C75 (ADA C75 (P00813)) | isoTOP-ABPP reactivity profile ratio, P24752_C119 (ACAT1 C119 (P24752); in-vitro_ramos) | isoTOP-ABPP reactivity profile ratio, P24752_C119 (ACAT1 C119 (P24752); in-vitro_ramos_231) | blockade of IA-alkyne labeling of C109 of PRMT1 (PRMT1 C109 (Q99873); competitive isoTOP-ABPP) | isoTOP-ABPP reactivity profile ratio, O14980_C528 (XPO1 C528 (O14980); in-vitro_ramos) | isoTOP-ABPP reactivity profile ratio, Q16822_C306 (PCK2 C306 (Q16822); in-vitro_ramos) | Compound
 |  |  |  |  |  |  |  |  | 1.2 | 1.4 | 4.6 | 3.3 | 1.2 | 1.1 | 1.8 |  |  |  | COc1cc(NC(=O)CCl)cc(OC)c1 [compound 43]
 |  |  |  |  |  |  |  |  | 9.5 | 0.9 |  |  | 1.0 | 0.9 | 0.8 | blocking IA-alkyne labeling | 0.9 | 0.8 | O=C(CCl)Nc1cccc2ncccc12 [compound 51]
 |  |  |  |  |  |  |  |  | 1.3 | 0.9 | 1.3 | 1.3 | 1.2 | 0.8 | 1.4 |  |  | 1.6 | O=C(CCl)Nc1ccc(-c2ccccc2)cc1 [compound 52]
